Legend:
CTT-18 cells = assay: Peptide collagen gel contraction assay; type: cell-based, human; settings: FIG. 4, gel area over time
Procedure: CTT-18 cells, which are a normal human colon fibroblast cell line available from ATCC (#1459-CRL), were used in the gel contraction assays. Subconfluent CTT-18 cells were harvested by trypsinization, neutralized with soybean trypsin inhibitor, then washed several times with serum-free Dulbecco's modified Eagle's medium (DMEM). The cells were resuspended at 5×10^6 cells/ml in DMEM.
The collagen solution was prepared by combining the following reagents in the stated order: 1× DMEM, 1× insulin/transferrin/selenium (ITS; Collaborative Research; Bedford Mass.), 25 mM HEPES, 2.5 mg/ml rat tail collagen I (Collaborative Research). The solution was adjusted to pH 7.4 using 2M NaOH and deionized water was added to the appropriate final volume. Finally, 5×10^4 cells/ml (DMEM) were added to the solution and 0.6 ml of the combined solution was added to each well of a 24 well plate. The solution was allowed to gel for 1 hr at 37° C.
Peptides were diluted to 4.5 mM in 1× DMEM/1× ITS/1× penicillin/1× streptomycin and the solution was adjusted to pH 7.4. Each gel was overlayed with 0.6 ml peptide solution and the gel periphery was rimmed to release the gel from the edge of the well. The gels were incubated at 37° C. and each gel area was monitored daily by planimetry using a computerized planimetry program (Digitize, Macintosh).
In addition to determining the area of a gel, a replicate gel for each experimental condition was examined each day for cell viability. To determine cell viability, the overlay media was removed and replaced with 4 mg/ml collagenase type 2 (Worthington Biochemical; Freehold N.J.) in collagen digestion buffer (0.13M NaCl, 0.01M Ca acetate, 0.02M HEPES, pH 7.2). The sample was incubated at 37° C. until digestion was complete (about 1 hr). The solution was centrifuged at 3000 rpm in a microcentrifuge for 5 min and the pellet resuspended in trypsin/EDTA and incubated for 20 min at 37° C. The solution again was centrifuged, the pellet resuspended in 40 μl 0.4% trypan blue and the viable cells were counted in a hemocytometer. In general, the variations in cell viability were slight, and it was unnecessary to correct the gel contraction results due to significant differences in cell viability.

collagen gels = settings: Grinnell et al. 1989; U.S. Pat. No. 4,957,902; cited from earlier work
[1] = system: NIH 3T3 mouse fibroblasts; assay: Decorin collagen gel contraction assay, NIH 3T3 cells; type: cell-based; settings: for collagen gel contraction versus control level: 10 ng/ml PDGF, 20 ng/ml acidic FGF, without decorin
Procedure: NIH 3T3 mouse fibroblasts (ATCC #CRL 1658) and WI38 human fibroblasts (ATCC #CL75) were used in these assays and passaged in culture as prescribed.
Cells were collected by washing the cells with sterile PBS, then incubating the cells for 5 min at 37° C. with trypsin-EDTA (200 mg versene and 500 mg trypsin/liter Hank's balanced salt solution; Gibco/BRL; Gaithersburg MD). Following incubation, cells were removed by aspiration with a pipet and DMEM supplemented with 10% FBS (BioWhittaker; Walkersville Md.) was added to neutralize the trypsin. Cells were centrifuged for 8 min at 1200 rpm, decanted, washed 3× with serum-free DMEM and resuspended in serum-free DMEM to the following concentrations: NIH 3T3 cells, 3.0×10^6 cells/ml; WI38 cells, 1.0×10^6 cell/ml.
The following reagents were added on ice to generate a total of 24 gels: 3.6 ml 5× DMEM (Gibco/BRL), 1.0 ml 1M HEPES (Sigma), 0.74 ml 0.5M NaOH, 2.0 ml cell suspension in serum-free DMEM, 7.6 ml rat tail collagen I (3.81 mg/ml; Collaborative Research). The collagen mixture was quickly added to a mixture of 4.8 ml decorin and water to yield the appropriate decorin concentration and 0.7 ml was added to each well of a 24 well microtiter dish that previously had been coated with 2% bovine serum albumin in PBS. The gels were allowed to solidify for 1 hr at 37° C. in a humidified incubator, then were released from the edges of the well by tapping or by rimming with a pipet tip.
Gels were transferred aseptically using forceps from the microtiter plate into a Nunc six well plate. Three gels were transferred into each 33 mm well. Prior to transfer, each well received 1 ng/ml TGFβ (from porcine platelets; R&D Systems; Minneapolis Minn.). […] The plates were rocked in a humidified incubator at 37° C. and 7% CO2 for the length of the experiment. The area of the gels was measured daily using photographs from an image analyzer and planimetry.

collagen [2] = assay: Binding to collagen
collagen [3] = assay: Effect on collagen fibril structure

## N=C(N)NCCC[C@H](N)C(=O)O [mono-arginine, arginine]
CTT-18 cells
  inhibition of gel contraction: did not inhibit gel contraction
CTT-18 cells; listed as Arg 1
  inhibition of gel contraction: do not inhibit collagen gel contraction

## GRGESP
Collagen gels
  effect on contraction of collagen gels: inhibited contraction of collagen gels

## PDGF
[1]; 1 ng/ml TGFβ, FIG. 6
  collagen gel contraction versus control level: increased the amount of collagen gel contraction above the control level

## TGFβ: growth factor from porcine platelets (R&D Systems) that stimulates contraction
[1]; 1 ng/ml TGFβ, FIG. 6
  collagen gel contraction versus control level: increased the amount of collagen gel contraction above the control level
[1]; 1.0 ng/ml TGFβ, 24 hr, 0 μg/ml decorin
  contraction of a collagen/NIH 3T3 gel: approximately 60%

## acidic FGF: acidic fibroblast-derived growth factor (R & D Systems)
[1]; 1 ng/ml TGFβ, FIG. 6
  collagen gel contraction versus control level: increased the amount of collagen gel contraction above the control level

## di-arginine
CTT-18 cells
  inhibition of gel contraction: did not inhibit gel contraction
CTT-18 cells; listed as Arg 2
  inhibition of gel contraction: do not inhibit collagen gel contraction

## tri-arginine
CTT-18 cells
  inhibition of gel contraction: did not inhibit gel contraction
CTT-18 cells; listed as Arg 3
  inhibition of gel contraction: do not inhibit collagen gel contraction

B1: decorin: proteoglycan produced by fibroblasts, core protein about 40 kDa; produced in decorin-expressing CHO cells (protein, UniProt P07585 31-359, looked up)
Decorin: DEASGIGPEVPDDRDFEPSLGPVCPFRCQCHLRVVQCSDLGLDKVPKDLPPDTTLLDLQNNKITEIKDGDFKNLKNLHALILVNNKISKVSPGAFTPLVKLERLYLSKNQLKELPEKMPKTLQELRAHENEITKVRKVTFNGLNQMIVIELGTNPLKSSGIENGAFQGMKKLSYIRIADTNITSIPQGLPPSLTELHLDGNKISRVDAASLKGLNNLAKLGLSFNSISAVDNGSLANTPHLRELHLDNNKLTRVPGGLAEHKYIQVVYLHNNNISVVGSSDFCPPGHNTKKASYSGVSLFSNPVQYWEIQPSTFRCVYVRSAIQLGNYK
[1]; 200 μg decorin per ml gel, 1 ng/ml TGFβ, 10 ng/ml PDGF or 20 ng/ml acidic FGF, FIG. 6
  gel contraction in the presence of growth factors: reduced or inhibited the level of gel contraction
[1]; collagen/NIH 3T3 gel, 1 ng/ml TGFβ, 24 hr
  gel contraction at 200 μg per ml decorin: no gel contraction was observed
[1]; collagen/NIH 3T3 gel, 1 ng/ml TGFβ, 24 hr, FIG. 5
  gel contraction with increasing concentrations of decorin in the gel: reduced or inhibited gel contraction

B2: denatured decorin: denatured decorin, compared with native/intact decorin (protein, UniProt P07585 31-359, looked up)
Decorin: DEASGIGPEVPDDRDFEPSLGPVCPFRCQCHLRVVQCSDLGLDKVPKDLPPDTTLLDLQNNKITEIKDGDFKNLKNLHALILVNNKISKVSPGAFTPLVKLERLYLSKNQLKELPEKMPKTLQELRAHENEITKVRKVTFNGLNQMIVIELGTNPLKSSGIENGAFQGMKKLSYIRIADTNITSIPQGLPPSLTELHLDGNKISRVDAASLKGLNNLAKLGLSFNSISAVDNGSLANTPHLRELHLDNNKLTRVPGGLAEHKYIQVVYLHNNNISVVGSSDFCPPGHNTKKASYSGVSLFSNPVQYWEIQPSTFRCVYVRSAIQLGNYK
modifications: denatured
Collagen [2]
  collagen binding: binds collagen to the same extent as nondenatured decorin
Collagen [3]
  effect on fibril structure: does not affect fibril structure
[1]; cells not given
  inhibition of gel contraction compared with intact decorin: retains some ability to inhibit gel contraction

B3: Decorin that had been reduced and alkylated: decorin incubated with dithiothreitol, then iodoacetamide (protein, UniProt P07585 31-359, looked up)
Decorin: DEASGIGPEVPDDRDFEPSLGPVCPFRCQCHLRVVQCSDLGLDKVPKDLPPDTTLLDLQNNKITEIKDGDFKNLKNLHALILVNNKISKVSPGAFTPLVKLERLYLSKNQLKELPEKMPKTLQELRAHENEITKVRKVTFNGLNQMIVIELGTNPLKSSGIENGAFQGMKKLSYIRIADTNITSIPQGLPPSLTELHLDGNKISRVDAASLKGLNNLAKLGLSFNSISAVDNGSLANTPHLRELHLDNNKLTRVPGGLAEHKYIQVVYLHNNNISVVGSSDFCPPGHNTKKASYSGVSLFSNPVQYWEIQPSTFRCVYVRSAIQLGNYK
modifications: reduced and alkylated
notes: decorin incubated with dithiothreitol, then iodoacetamide
[1]; reduced and alkylated form, data not shown
  gel contraction: inhibited gel contraction

B4: biglycan: proteoglycan with core protein sequence closely related to decorin (protein, UniProt P21810 38-368, looked up)
Biglycan: DEEASGADTSGVLDPDSVTPTYSAMCPFGCHCHLRVVQCSDLGLKSVPKEISPDTTLLDLQNNDISELRKDDFKGLQHLYALVLVNNKISKIHEKAFSPLRKLQKLYISKNHLVEIPPNLPSSLVELRIHDNRIRKVPKGVFSGLRNMNCIEMGGNPLENSGFEPGAFDGLKLNYLRISEAKLTGIPKDLPETLNELHLDHNKIQAIELEDLLRYSKLYRLGLGHNQIRMIENGSLSFLPTLRELHLDNNKLARVPSGLPDLKLLQVVYLHSNNITKVGVNDFCPMGFGVKRAYYNGISLFNNPVPYWEVQPATFRCVTDRLAIQFGNYKK
Collagen [2]
  collagen binding: can bind to collagen in the gel contraction assays

— patent US5851994A, “Compositions that inhibit wound contraction and methods of using same” (La Jolla Cancer Research Foundation, priority 1995, dated 1998)
